According to PMC4161160 (Journal of Medicinal Chemistry, 2014):
Values joined by “and” are separate entries in the source; they are usually repeats but may differ in a detail not shown here. Equal entries are not always repeated. Where two headings read alike, the source gives them in different places. Blank lines part the entries; values can stand above or below the molecule they belong to.

Tests used:
[1] = Microsomal stability assay, human liver microsomes; assay type: in vitro ADME; settings: for T1/2 in human liver microsomes: 0.5 μM compound, 1 mg/mL microsomal protein; for Fold improvement of metabolic stability in human microsomes: compared to parent SMART compound
[2] = Microsomal stability assay, mouse liver microsomes; assay type: in vitro ADME; settings: 0.5 μM compound, 1 mg/mL microsomal protein
[3] = Microsomal stability assay, rat liver microsomes; assay type: in vitro ADME; settings: 0.5 μM compound, 1 mg/mL microsomal protein
Bovine brain tubulin = Bovine brain tubulin (Bos taurus, UniProt P81947+Q6B856); assay: In vitro tubulin polymerization assay; assay type: biochemical; settings: for Inhibition of tubulin polymerization: 20 min incubation, compared to vehicle
[4] = Metabolite identification in human liver microsomes; assay type: in vitro ADME; settings: 50 μM compound, 1 mg/mL microsomal protein, high resolution MS
[5] = cited from earlier work
[6] = cited from earlier work; remark: listed apart in the source
A375 = assay: Antiproliferative SRB assay, A375 melanoma cells; assay type: cell-based; settings: compared to SMART compound 10 and 4
LNCaP = assay: Antiproliferative SRB assay, LNCaP prostate cancer cells; assay type: cell-based, human; settings: compared to SMART compound 10 and 4
[7] = Microsomal stability, over the tested liver microsome species; assay type: in vitro ADME; settings: mouse, rat
prostate cancer cells = assay: Antiproliferative activity, prostate cancer cells overall; assay type: cell-based, human; settings: compared to parent PAT compound

Bovine brain tubulin, sequence (Q6B856 whole entry): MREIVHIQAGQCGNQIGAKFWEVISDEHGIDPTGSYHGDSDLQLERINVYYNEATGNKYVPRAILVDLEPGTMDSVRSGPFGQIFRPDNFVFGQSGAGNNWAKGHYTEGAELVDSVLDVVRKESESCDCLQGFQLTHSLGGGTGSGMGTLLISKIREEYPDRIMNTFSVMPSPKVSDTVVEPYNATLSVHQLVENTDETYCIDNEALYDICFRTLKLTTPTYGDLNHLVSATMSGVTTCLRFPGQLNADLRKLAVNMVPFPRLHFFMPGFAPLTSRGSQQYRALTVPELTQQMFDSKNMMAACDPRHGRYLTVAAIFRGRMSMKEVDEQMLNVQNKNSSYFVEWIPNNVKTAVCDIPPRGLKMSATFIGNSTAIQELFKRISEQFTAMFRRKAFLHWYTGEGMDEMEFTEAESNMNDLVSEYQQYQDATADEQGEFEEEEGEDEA
Bovine brain tubulin, sequence (P81947 whole entry): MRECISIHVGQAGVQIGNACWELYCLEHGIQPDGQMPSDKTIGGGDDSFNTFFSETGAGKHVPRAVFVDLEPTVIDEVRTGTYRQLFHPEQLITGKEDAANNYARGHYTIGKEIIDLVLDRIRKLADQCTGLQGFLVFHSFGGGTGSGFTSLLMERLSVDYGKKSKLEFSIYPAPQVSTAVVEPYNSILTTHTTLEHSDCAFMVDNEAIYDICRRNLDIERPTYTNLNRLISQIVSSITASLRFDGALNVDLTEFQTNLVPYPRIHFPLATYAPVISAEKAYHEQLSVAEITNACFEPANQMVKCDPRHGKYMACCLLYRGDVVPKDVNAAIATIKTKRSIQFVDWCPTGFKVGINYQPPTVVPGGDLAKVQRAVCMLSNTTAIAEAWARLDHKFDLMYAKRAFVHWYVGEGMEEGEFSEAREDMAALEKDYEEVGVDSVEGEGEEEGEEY

T1/2 in human liver microsomes [1]: 0.85 h and 0.845 ± 0.02 h
Fold improvement of metabolic stability in human microsomes [1]: 2–3 fold
T1/2 in mouse liver microsomes [2]: 0.892 ± 0.04 h
T1/2 in rat liver microsomes [3]: 1.2 ± 0.0767 h
Inhibition of tubulin polymerization (Bovine brain tubulin; 5 μM): 30%
Inhibition of tubulin polymerization (Bovine brain tubulin; 10 μM): 60%
Molecule: 2-(1H-Indol-3-yl)-4-(3,4,5-trimethoxyphenyl)-1H-benzo[d]imidazole [compound 4]
Major metabolites / metabolic pathway [4]: o-demethylation (M9) and monohydroxylation (M10) are the major products

Molecule: COc1cc(C(=O)c2csc(Nc3ccccc3)n2)cc(OC)c1OC [PAT]
Oral bioavailability [5]: 21%
Oral bioavailability (F) ([5]; reference not given): > 30%

Molecule: COc1cc(C(=O)c2csc(-c3ccccc3)n2)cc(OC)c1OC [SMART 10]
T1/2 in mouse liver microsomes [6]: ≪5 min

Fold improvement of IC50 against A375 (A375): at least 5 fold
Fold improvement of IC50 against LNCaP (LNCaP): at least 5 fold
Fold improvement of metabolic stability in human microsomes [1]: 2–3 fold
inhibition at 5 µM (Bovine brain tubulin; read-out: Inhibition of tubulin polymerization): ~33%
Major metabolites / metabolic pathway [4]: M14 is the major metabolite
Molecule: COc1cc(-c2nccc3[nH]c(-c4ccc5[nH]ccc5c4)nc23)cc(OC)c1OC [compound 7, 2-(1H-Indol-5-yl)-4-(3,4,5-trimethoxyphenyl)-1H-imidazo[4,5-c]pyridine]

half-life at 0.5 μM ([7]; human, liver microsomes, pH 7.4): < 0.167 h
Molecule: COCOc1c(OC)cc(C(=O)c2csc(-c3ccccc3)n2)cc1OC [compound 15, (3,5-Dimethoxy-4-(methoxymethoxy)phenyl)(2-phenylthiazol-4-yl)methanone]
Major metabolites / metabolic pathway [4]: removal of the MOM group to form M1 is the major metabolic pathway

Fold change of IC50 on prostate cancer cells (prostate cancer cells): 2–3 fold
Molecule: COc1cc(C(=O)c2csc(Nc3ccc4[nH]ccc4c3)n2)cc(OC)c1OC [compound 33, (2-((1H-Indol-5-yl)amino)thiazol-4-yl)(3,4,5-trimethoxyphenyl)methanone]

T1/2 in human liver microsomes [1]: 1.833 ± 0.0917 h
T1/2 in mouse liver microsomes [2]: 2.05 ± 0.128 h
T1/2 in rat liver microsomes [3]: 3.75 ± 0.21 h
T1/2 in the tested liver microsomes species ([7]; summary over human): 1.83 to 3.75 h
Molecule: (4-(2-Aminoethyl)-3,5-dimethoxyphenyl)(2-phenylthiazol-4-yl)methanone [compound 18]
Major metabolites / metabolic pathway [4]: M6 (dealkylation) and M8 (ketone reduction) are the major metabolites
